Read-outs that look alike come from different tables or passages of the source.
Experiments:
[1] = target: T1, human IDO (Homo sapiens, UniProt P14902); assay: Determination of whether the inhibitor is reversible (v~[E] plot); assay type: biochemical; conditions: constant inhibitor concentration, different IDO enzyme amounts, 300 mM L-tryptophan, 37° C. 30 minutes
T1 construct: made in house; host or cells: Escherichia coli
Method: In case that the inhibitor concentration was constant, a series of enzymes of different concentrations are reacted with the inhibitor and the reaction rate was measured. The reaction rate to the enzyme concentration (v˜[E]) was plotted, thus it can be determined that whether it is a reversible inhibitor according to the curve characteristics.
The mixture was incubated under 37° C. for 5 min, then different volumes of IDO enzymes were added. The reaction was conducted at 37° C. for 30 minutes and was terminated by adding 30% (w/v) trichloroacetic acid (200 μl). The reaction system was heated at 65° C. for 15 minutes to convert the formyl kynurenine to kynurenine, and then rotated under 12000 rpm for 10 minutes. The supernatant was taken to mix with isometric solution of p-dimethyl amidogen benzaldehyde in acetic acid (2% (w/v)). The off scale reading at 490 nm was observed using a Microplate Reader. The v˜[E] was plotted.

[2] = target: T1, human IDO; assay: biochemical
Method: The reaction was conducted under 37° C. for 30 minutes and was terminated by 30% (w/v) trichloroacetic acid (200 μl). The reaction system was heated under 65° C. for 15 minutes to convert the formyl kynurenine into kynurenine, and then rotated under 12000 rpm for 10 minutes. The supernatant was taken to mix with isometric p-dimethyl amidogen benzaldehyde in acetic acid (2% (w/v)) solution. The yellow color caused by the reaction of the mixture and kynurenine, can be observed at 490 nm by using Microplate Reader. The results were calculated with IC50 calculation software (see Table 1).

[3] = 150 mM substrate L-tryptophan, pH 6.5, 37° C. 30 minutes, read at 490 nm, read-out: IC50(in vitro)

T1 sequence (P14902 whole entry): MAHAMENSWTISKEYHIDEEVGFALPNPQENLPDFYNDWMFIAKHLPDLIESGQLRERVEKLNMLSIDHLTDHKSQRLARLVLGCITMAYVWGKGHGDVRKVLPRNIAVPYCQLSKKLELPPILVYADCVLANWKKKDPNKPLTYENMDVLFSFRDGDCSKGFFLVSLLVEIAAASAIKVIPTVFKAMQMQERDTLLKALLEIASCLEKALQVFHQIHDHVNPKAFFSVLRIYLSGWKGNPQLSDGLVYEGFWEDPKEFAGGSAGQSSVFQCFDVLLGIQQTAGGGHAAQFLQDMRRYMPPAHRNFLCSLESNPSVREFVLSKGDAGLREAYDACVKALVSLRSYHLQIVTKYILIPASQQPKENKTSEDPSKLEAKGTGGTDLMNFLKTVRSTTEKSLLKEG

In the case of `CN1CCN(c2ccc3nc4n(c(=O)c3c2)-c2ccccc2C4=O)CC1` [Compound 11], the “Reversible Inhibitor or Not” value [1] is reported as “Reversible” and the IC50 [2, 3] is reported as 8.01 µM.
With `O=C1c2cc(F)ccc2-n2c1nc1ccc(N3CCCCC3)cc1c2=O` [Compound 9] the “Reversible Inhibitor or Not” value [1] was “Reversible” and the IC50 [2, 3] was 1.8 µM.
For `O=C1c2cc(F)ccc2-n2c1nc1ccc(N3CCNCC3)cc1c2=O` [Compound 5], the “Reversible Inhibitor or Not” value [1] was “Reversible” and the IC50 [2, 3] was 1.19 µM.
For `O=C1c2c(N3CCNCC3)cccc2-n2c1nc1ccccc1c2=O` [Comparison 1, 7-piperazine tryptanthrin, reference compound], the “Reversible Inhibitor or Not” value [1] was “Reversible” and the IC50 [2] was 54.3 µM.
In the case of `CN1CCN(c2ccc3nc4n(c(=O)c3c2)-c2ccc(F)cc2C4=O)CC1` [Compound 6], the “Reversible Inhibitor or Not” value [1] is reported as “Reversible” and the IC50 [2, 3] is reported as 2.2 µM.
`CN(C)c1ccc2nc3n(c(=O)c2c1)-c1ccc(F)cc1C3=O` [Compound 7] was tested, and the “Reversible Inhibitor or Not” value [1] was “Reversible” and the IC50 [2, 3] was 10.3 µM.

Reference: US9630969B2, “N-alkyl tryptanthrin derivative, preparation method for same, and application thereof” (SHANGHAI TIN TSZ BIO VALLEY BIOLOGICAL ENGINEERING CO., LTD, priority 2013, dated 2017)
